Values after ≈ are worked out from the molar mass of the structure shown. Like-named read-outs stand apart in the source and are kept apart here.
Columns and labels:
[1] = system: Spodoptera littoralis larvae (2nd and 4th instars, laboratory strain of cotton leafworm); conditions: in vivo
Procedure: (§1) Five concentrations (200, 100, 50, 25, 12.5 ppm) were designed for this synthetic compound and the reference fenoxycarb's compound as the dynamic ingredients based on ppm via diluting the commercial formulation.
(§2) In this experiment, the synthetic compound was tested for its insecticidal bioactivity using the industry-standard leaf dip bioassay techniques. […] Until usage, the stocks were kept in a refrigerator. The target substance test results were noted & the concentrations needed to destroy 50% (LC50) of S. littoralis larvae were calculated. The target compound was employed in five different concentrations, & 0.1% Tween 80 was employed as a surfactant. Castor bean leaf discs (nine centimeters in diameter) were dipped in the concentration under test for ten seconds, then fed to 2th & 4th larvae, which were roughly the same size and housed in glass jars (five pound). Each action carried out 3 times with ten larvae each. The mortality equalized via Abbott's formula. Calculations of mortality setback line were measurably rummage via probity analysis. Harmfulness index was strongminded via sun equations. The mortality results of larval insect were estimated through employing probit analysis through a statistics (LDP-line) equation which estimate the LC50 values with 95% fiducially limits of lower, upper confidence limit and slope.

[2] = system: Spodoptera littoralis larvae (2nd and 4th instars, laboratory strain of cotton leafworm); assay: Insecticidal leaf dip bioassay screening; conditions: for Toxicity index %: fenoxycarb's LC50/compound's LC50 * 100; for LC50: Spodoptera littoralis, in Gossypium hirsutum, foliar, 72 h
Procedure: as §1, §2

aquatic insects = conditions: cited from earlier work
[3] = read-out: LC50 (mg/L) at 95%, 2nd instar larvae, after 72 hours of treatment, leaf dip
[4] = read-out: LC50 (mg/L) at 95%, 4th instar larvae, after 72 hours of treatment, leaf dip

O=Cc1ccc(OCC(O)COc2ccc(C=O)cc2)cc1 [Compound 1, 4,4′-[(2-hydroxypropane-1,3-diyl)bis(oxy)]dibenzaldehyde]
LC50 (mg/L) at 95% [1]: about 25.62 mg/L
Toxicity index % ([2]; 2nd instar larvae, 72 hours): 22.93%
Toxicity index % ([2]; 4th instar larvae, 72 hours): 69.54%
LC50 [2, 3]: 25.6 mg/L (≈ 85.3 µM)
LC50 [2, 4]: ~86.1 mg/L (≈ 287 µM)
activity against Spodoptera littoralis (in words) ([2]; compared with the reference insecticide Fenoxycarb, 72 hours): active against Spodoptera littoralis

CCOC(=O)NCCOc1ccc(Oc2ccccc2)cc1 [fenoxycarb, reference compound]
LC50 [2, 3]: 5.94 mg/L (≈ 19.7 µM)
LC50 [2, 4]: 59.9 mg/L (≈ 199 µM)

CCc1ccc(C(=O)NN(C(=O)c2cc(C)cc(C)c2)C(C)(C)C)cc1 [tebufenozide]
LC50 (aquatic insects): 100 to 1000 µg/mL

Source: patent publication US12213481B1, “4,4′-[(2-hydroxypropane-1,3-diyl)bis(oxy)]dibenzaldehyde as an eco-friendly insecticidal agent against Spodoptera littoralis (boisd.)” (KING FAISAL UNIVERSITY, priority 2023, dated 2025)
